This is an account of results in patent EP4048276B1, “SOLID PHARMACEUTICAL FORMULATIONS COMPRISING TICAGRELOR” (Santa Farma Ilaç Sanayi A.S., priority 2019, dated 2021).

Common to all, as to type: physicochemical
A short description of data set [1]: Solubility study of ticagrelor drug substance in water and pH media. The protocol:
(§1) Moreover, this low aqueous solubility of ticagrelor leads to an increase of relevance of particle size. Solubility studies in human intestinal fluids, bulk-tapped density, compressibility index, Hausner ratio, flowability studies of drug substance were performed prior to beginning of the development process of pharmaceutical drug product.

Data set [2] is described as follows: Bulk/tapped density, compressibility index, Hausner ratio and flowability of drug substance. The protocol:
as §1
In addition, bulk density and tapped density values of ticagrelor was investigated. By using the results obtained, compressibility index, Hausner ratio and flowability of drug substance was designated.

Data set [3] is described as follows: Particle size distribution analysis. The protocol: Moreover, particle size distribution analysis for ticagrelor was performed.

SMILES strings stand for the structures. ≈ marks a conversion by molar mass, not a printed value. Where two headings read alike, the source gives them in different places.

Usually solubility stands for the dissolved amount per volume that the medium holds. Regarding `CCCSc1nc(N[C@@H]2C[C@H]2c2ccc(F)c(F)c2)c2nnn([C@@H]3C[C@H](OCCO)[C@@H](O)[C@H]3O)c2n1` [Ticagrelor, (1S,2S,3R,5S)-3-(7-{[(1R,2S)-2-(3,4-Diflourophenyl)cyclopropyl]amino}-5-(propylsulfanyl)-3H-[1,2,3]triazol[4,5-d]pyrimidine-3-yl)-5-(2-hydroxyethoxy)cyclopentane-1,2-diol], the solubility in data set [1] (pH 1.2 medium, pH 1.2, simulated gastric fluid, read-out: Average solubility, pH: 1.2) is 14 µg/mL (≈ 26.8 µM). In addition, in data set [1] (pH 4.5 medium, pH 4.5, aqueous buffer, read-out: Average solubility, pH: 4.5), the solubility was found to be 6 µg/mL (≈ 11.5 µM). Also, the solubility in data set [1] (pH 6.8 medium, pH 6.8, aqueous buffer, read-out: Average solubility, pH: 6.8) was 5 µg/mL (≈ 9.57 µM). Also, in data set [1] (water, read-out: Average solubility, Water), the solubility came out at 6 µg/mL (≈ 11.5 µM). Besides, in data set [2], the Bulk density is on record as 0.157, the Compressibility index is 39%, the Flowability result is given as “Very poor” and the Hausner ratio was 1.639. The Tapped density in data set [2] turned out to be 0.257. Further, in data set [3], the D10 worked out at 3.0 µm, the D50 is given as 6.4 µm and the D90 was found to be 12.5 µm.
